Laboratory results published in ChEMBL document CHEMBL1201862, “PubChem BioAssay data set” (2004).
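Assay format: 96-well plates, 48-hour exposure. GI50 = concentration required for 50% inhibition of growth.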 Active and inactive are the calls of the source. Rule as the data show it: active = GI50 up to about 1.1 µM and inactive = higher.

How the values were obtained:
Experiment in all cases: NCI-60 cell line screen, 48 h
[1] = tested on: A498
[2] = tested on: HCT-15
[3] = tested on: HL-60
[4] = tested on: IGROV-1
[5] = tested on: MOLT-4
[6] = tested on: NCI-H460
[7] = tested on: OVCAR-4
[8] = tested on: OVCAR-5
[9] = tested on: OVCAR-8
[10] = tested on: SF-539
[11] = tested on: SNB-19
[12] = tested on: SNB-75
[13] = tested on: SR
[14] = tested on: UACC-62
[15] = tested on: HCC 2998
[16] = tested on: HCT-116
[17] = tested on: K562
[18] = tested on: LOX IMVI
[19] = tested on: DLD-1
[20] = tested on: M19-MEL

Structure (SMILES) | GI50 [1] | GI50 [2] | GI50 [3] | GI50 [4] | GI50 [5] | GI50 [6] | GI50 [7] | GI50 [8] | GI50 [9] | GI50 [10] | GI50 [11] | GI50 [12] | GI50 [13] | GI50 [14] | GI50 [15] | GI50 [16] | GI50 [17] | GI50 [18] | GI50 [19] | GI50 [20]
C=CC1OC(CCCOC(=O)C(C)(C)C)O[C@@H]1CC (stereo partly drawn) | > 100 µM (inactive) | > 100 µM | 7.38 µM (inactive) | > 100 µM (inactive) | > 100 µM (inactive) | 37.2 µM (inactive) | > 100 µM (inactive) | > 100 µM (inactive) | > 100 µM (inactive) | > 100 µM (inactive) | > 100 µM (inactive) | > 100 µM (inactive) | > 100 µM (inactive) | > 100 µM (inactive) | – | – | – | – | – | –
O=S(=O)(c1ccccc1)C1CC(c2nc3ccccc3[nH]2)=NO1 (stereo not drawn) | 43 µM (inactive) | 51.3 µM | – | 16.6 µM (inactive) | 39.1 µM (inactive) | 50.1 µM (inactive) | > 100 µM (inactive) | > 100 µM (inactive) | > 100 µM (inactive) | 51.4 µM (inactive) | > 100 µM (inactive) | > 100 µM (inactive) | 29.3 µM (inactive) | > 100 µM (inactive) | > 100 µM (inactive) | 52.6 µM (inactive) | 31.6 µM (inactive) | > 100 µM (inactive) | – | –
COc1cc(C2S/C(=C/c3ccccc3)C(=O)N2c2cccc(NC(C)=O)c2)cc(OC)c1OC (stereo not drawn) | 32.5 µM (inactive) | 30.5 µM | – | – | 30.6 µM (inactive) | – | 24.4 µM (inactive) | 65.8 µM (inactive) | 29.9 µM (inactive) | – | 58.7 µM (inactive) | 4.02 µM (inactive) | 37.9 µM (inactive) | 29.1 µM (inactive) | 29.6 µM (inactive) | 17.2 µM (inactive) | 39.5 µM (inactive) | 21.5 µM (inactive) | – | –
OC(c1cccnc1Cl)c1nc2ccccc2c2ccnc(Cl)c12 (stereo not drawn) | 3.23 µM (inactive) | 3.04 µM | 2.77 µM (inactive) | 5.02 µM (inactive) | 3.67 µM (inactive) | 4.4 µM (inactive) | 27.5 µM (inactive) | 9.51 µM (inactive) | 9.12 µM (inactive) | 3.02 µM (inactive) | 6.82 µM (inactive) | 15 µM (inactive) | 0.396 µM (active) | 2.06 µM (inactive) | – | 3.35 µM (inactive) | 1.4 µM (inactive) | 7.01 µM (inactive) | – | –
O=Cc1c(Cn2ccnc2)c2cc([N+](=O)[O-])ccc2n1Cc1ccccc1 | > 93.3 µM (inactive) | > 100 µM | – | > 83 µM (inactive) | > 100 µM (inactive) | 37.3 µM (inactive) | > 100 µM (inactive) | > 90.6 µM (inactive) | > 81.3 µM (inactive) | > 72.6 µM (inactive) | 49.3 µM (inactive) | > 100 µM (inactive) | – | > 100 µM (inactive) | > 100 µM (inactive) | 52 µM (inactive) | 97.1 µM (inactive) | > 100 µM (inactive) | > 100 µM (inactive) | > 69.2 µM (inactive)
Cc1ccc(C2=C(C#N)C(N)OC3=C2COc2ccccc23)cc1 (stereo not drawn) | 24.1 µM (inactive) | > 100 µM | > 100 µM (inactive) | 57.8 µM (inactive) | 16.6 µM (inactive) | 43.5 µM (inactive) | 13.5 µM (inactive) | 2.4 µM (inactive) | – | 39.6 µM (inactive) | 19 µM (inactive) | – | 32.6 µM (inactive) | 78 µM (inactive) | 41.6 µM (inactive) | 31.9 µM (inactive) | 80.7 µM (inactive) | 88.3 µM (inactive) | – | –
O=C(NC(Cc1ccc(I)cc1)C(=O)O)c1ccc(Cl)cc1 (stereo not drawn) | > 100 µM (inactive) | > 100 µM | > 100 µM (inactive) | > 100 µM (inactive) | > 74.3 µM (inactive) | > 100 µM (inactive) | > 66.8 µM (inactive) | > 100 µM (inactive) | > 100 µM (inactive) | > 77.1 µM (inactive) | > 100 µM (inactive) | 87.3 µM (inactive) | – | 74.8 µM (inactive) | > 38.8 µM (inactive) | > 100 µM (inactive) | > 100 µM (inactive) | > 100 µM (inactive) | > 100 µM (inactive) | > 100 µM (inactive)
CN1C[C@H]2[C@@H](C1=O)[C@H](c1ccc([N+](=O)[O-])cc1)ON2C | – | > 100 µM | > 100 µM (inactive) | > 100 µM (inactive) | > 100 µM (inactive) | > 100 µM (inactive) | > 100 µM (inactive) | > 100 µM (inactive) | > 100 µM (inactive) | – | > 100 µM (inactive) | – | > 100 µM (inactive) | – | > 100 µM (inactive) | > 100 µM (inactive) | > 100 µM (inactive) | > 100 µM (inactive) | – | –
CCOP(=O)(COCCn1nc(Br)c(=O)[nH]c1=O)OCC | > 100 µM (inactive) | > 100 µM | > 100 µM (inactive) | > 100 µM (inactive) | > 100 µM (inactive) | > 100 µM (inactive) | – | > 100 µM (inactive) | > 100 µM (inactive) | > 100 µM (inactive) | > 100 µM (inactive) | > 100 µM (inactive) | > 100 µM (inactive) | – | > 100 µM (inactive) | – | > 100 µM (inactive) | > 100 µM (inactive) | – | –
O=C(O)c1cn2c3c(cc(N4CCN(CCO)CC4)cc3c1=O)SCC2 | > 100 µM (inactive) | > 100 µM | > 100 µM (inactive) | > 100 µM (inactive) | 53.8 µM (inactive) | > 95.7 µM (inactive) | > 60.8 µM (inactive) | > 75.5 µM (inactive) | 62.8 µM (inactive) | 46.1 µM (inactive) | 96.2 µM (inactive) | 30.7 µM (inactive) | – | > 78.2 µM (inactive) | 33 µM (inactive) | > 100 µM (inactive) | 65.9 µM (inactive) | 71.1 µM (inactive) | > 100 µM (inactive) | > 80.7 µM (inactive)
CC(=O)OC[C@H]1[C@@H]2C(CC[C@]13CO3)OC(=O)CC(C)[C@]2(C)CCc1ccoc1 (stereo partly drawn) | > 100 µM (inactive) | > 100 µM | > 100 µM (inactive) | > 100 µM (inactive) | > 100 µM (inactive) | > 100 µM (inactive) | > 100 µM (inactive) | > 100 µM (inactive) | > 100 µM (inactive) | > 100 µM (inactive) | > 100 µM (inactive) | – | > 100 µM (inactive) | > 100 µM (inactive) | > 100 µM (inactive) | > 100 µM (inactive) | > 100 µM (inactive) | > 100 µM (inactive) | – | –
COc1cc(O)c2c(c1)C(=O)c1cc3c(c(O)c1C2=O)C(OC1OC(C)C(O)C(O)C1OC)C(OC)C(C)(O)C3=O (stereo not drawn) | 2.04 µM (inactive) | 2.32 µM | – | 2.52 µM (inactive) | – | 1.53 µM (inactive) | 0.476 µM (active) | 4.43 µM (inactive) | – | 1.85 µM (inactive) | 2.94 µM (inactive) | 3.57 µM (inactive) | – | 1.38 µM (inactive) | 4.23 µM (inactive) | – | – | 2 µM (inactive) | 2.22 µM (inactive) | 0.532 µM (active)
COC(=O)C1C(O)C(C)C(O)OC1C(C)C(O)C(C)/C=C\C=C(/C)C(=O)Nc1c(C)c(OC(C)=O)c2c(c1O)C(=O)C(C)=C1OCOC(/C(C)=C/C(C)=O)=C12 (stereo not drawn) | 15.2 µM (inactive) | 14.3 µM | 3.1 µM (inactive) | 12.6 µM (inactive) | 10.7 µM (inactive) | 13.7 µM (inactive) | 12.1 µM (inactive) | 13.5 µM (inactive) | 13.7 µM (inactive) | 13.2 µM (inactive) | 15.1 µM (inactive) | 3.77 µM (inactive) | – | 14.3 µM (inactive) | 13.9 µM (inactive) | 9.53 µM (inactive) | 16.5 µM (inactive) | 13.7 µM (inactive) | 8.93 µM (inactive) | 13.3 µM (inactive)
O=C(N/C=C1\C(=O)Oc2ccccc2C1=O)NC1CCCCC1 | – | 37.3 µM | 40 µM (inactive) | 56.5 µM (inactive) | 62.7 µM (inactive) | > 100 µM (inactive) | 77.8 µM (inactive) | > 100 µM (inactive) | > 100 µM (inactive) | > 100 µM (inactive) | 42.7 µM (inactive) | – | > 100 µM (inactive) | 28 µM (inactive) | > 100 µM (inactive) | 78.5 µM (inactive) | – | 85.3 µM (inactive) | – | 73.5 µM (inactive)
CCOC(=O)c1c(NC(=O)Nc2ccccc2)c(C(N)=O)c2n1CCCCC2 | > 100 µM (inactive) | > 100 µM | > 100 µM (inactive) | > 100 µM (inactive) | > 100 µM (inactive) | > 100 µM (inactive) | > 100 µM (inactive) | – | > 100 µM (inactive) | > 100 µM (inactive) | > 100 µM (inactive) | > 100 µM (inactive) | > 100 µM (inactive) | > 100 µM (inactive) | > 100 µM (inactive) | > 100 µM (inactive) | > 100 µM (inactive) | > 100 µM (inactive) | – | –
CC(c1ccccc1)/[N+]([O-])=C/c1ccccc1 (stereo not drawn) | > 100 µM (inactive) | – | > 100 µM (inactive) | > 100 µM (inactive) | > 100 µM (inactive) | > 100 µM (inactive) | – | > 100 µM (inactive) | > 100 µM (inactive) | > 100 µM (inactive) | > 100 µM (inactive) | > 100 µM (inactive) | – | – | > 100 µM (inactive) | > 100 µM (inactive) | > 100 µM (inactive) | > 100 µM (inactive) | > 100 µM (inactive) | > 100 µM (inactive)
CCN1c2ccccc2NC(=S)c2c(-c3ccccc3)n[nH]c21 | – | 23 µM | 13.6 µM (inactive) | 34.1 µM (inactive) | 17 µM (inactive) | 28.6 µM (inactive) | 36.6 µM (inactive) | 56.4 µM (inactive) | 39.4 µM (inactive) | 39.4 µM (inactive) | – | 55.7 µM (inactive) | 24.7 µM (inactive) | 27.3 µM (inactive) | 3.99 µM (inactive) | 33.2 µM (inactive) | 17.6 µM (inactive) | 30.5 µM (inactive) | – | –
